Test results reported in patent US10822348B2, “Inhibitors of Bruton's tyrosine kinase and methods of their use” (JANSSEN PHARMACEUTICA NV, priority 2015, dated 2020).

target: unphosphorylated-BTK kinase domain (UP-BTK), GST-tagged human BTK (389-659aa) (Homo sapiens (Human), UniProt Q06187); assay: BTK kinase Lanthascreen binding assay; details: negative log of the IC50 in molar; 60 minutes incubation with 50 nM Tracer 236
Procedure: BTK Kinase Lanthascreen Binding Assay:
A BTK kinase lanthascreen binding assay monitors compound binding to unphosphorylated-BTK kinase domain (UP-BTK), by competing with a fluorescent labeled tracer. […] Data were analyzed using Xlfit™ version 5.3 from ID Business Solutions (Guildford), Microsoft Excel add-in. pIC50 refers to the negative log of the IC50 in molar.

unphosphorylated-BTK kinase domain (UP-BTK), GST-tagged human BTK (389-659aa), sequence (Q06187 389-659): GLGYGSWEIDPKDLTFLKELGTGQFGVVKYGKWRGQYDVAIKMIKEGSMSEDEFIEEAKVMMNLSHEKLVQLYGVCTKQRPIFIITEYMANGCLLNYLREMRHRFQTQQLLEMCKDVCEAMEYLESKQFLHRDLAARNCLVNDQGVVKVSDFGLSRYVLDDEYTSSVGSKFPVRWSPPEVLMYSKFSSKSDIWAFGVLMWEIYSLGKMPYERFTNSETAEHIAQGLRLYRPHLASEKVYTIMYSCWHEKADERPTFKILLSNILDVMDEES

Compound	BTK_I_binding pIC50
C=CC(=O)N1CCC[C@@H](NC(=O)c2sc3nccc4c3c2NC(=O)N4c2ccc(OC(F)(F)F)cc2C)C1 (single isomer, unassigned) [Example 624, (R)—N-(1-Acryloylpiperidin-3-yl)-5-(*R)-(2-methyl-4-(trifluoromethoxy)phenyl)-4-oxo-4,5-dihydro-3H-1-thia-3,5,8-triazaacenaphthylene-2-carboxamide]	5.9
C=CC(=O)N1CCC[C@@H](NC(=O)c2sc3nccc4c3c2NC(=O)N4c2ccc(Oc3ccccc3)nc2C)C1 (single isomer, unassigned) [Example 661]	8.3
C=CC(=O)N1CCC[C@@H](NC(=O)c2sc3nccc4c3c2NC(=O)N4c2cnc(CC(C)C)cc2C)C1 (single isomer, unassigned) [Example 669, (R)—N-(1-Acryloylpiperidin-3-yl)-5-(*S)-(6-isobutyl-4-methylpyridin-3-yl)-4-oxo-4,5-dihydro-3H-1-thia-3,5,8-triazaacenaphthylene-2-carboxamide]	8.1
C=CC(=O)N1CCC[C@@H](NC(=O)c2sc3nccc4c3c2NC(=O)N4c2ccc(OC3CCOCC3)cc2C)C1 (single isomer, unassigned) [Example 675, (R)—N-(1-Acryloylpiperidin-3-yl)-5-(*R)-(2-methyl-4-((tetrahydro-2H-pyran-4-yl)oxy)phenyl)-4-oxo-4,5-dihydro-3H-1-thia-3,5,8-triazaacenaphthylene-2-carboxamide]	7.2
C=CC(=O)N1CCC[C@@H](NC(=O)c2sc3nccc4c3c2NC(=O)N4c2ccc(Oc3ccccc3)nc2C)C1 (single isomer, unassigned) [Example 690, (R)—N-(1-Acryloylpiperidin-3-yl)-5-(*R)-(2-methyl-6-phenoxypyridin-3-yl)-4-oxo-4,5-dihydro-3H-1-thia-3,5,8-triazaacenaphthylene-2-carboxamide]	7.6
C=CC(=O)N1CCC[C@@H](NC(=O)c2sc3nccc4c3c2NC(=O)N4c2cnc(Oc3ccccc3)cc2C)C1 (single isomer, unassigned) [Example 691, (R)—N-(1-Acryloylpiperidin-3-yl)-5-(*R)-(4-methyl-6-phenoxypyridin-3-yl)-4-oxo-4,5-dihydro-3H-1-thia-3,5,8-triazaacenaphthylene-2-carboxamide]	6.0
C=CC(=O)N1CCC[C@@H](NC(=O)c2sc3nccc4c3c2NC(=O)N4c2cnc(OC3CCC3)cc2C)C1 (single isomer, unassigned) [Example 700, (R)—N-(1-Acryloylpiperidin-3-yl)-5-(*R)-(6-cyclobutoxy-4-methylpyridin-3-yl)-4-oxo-4,5-dihydro-3H-1-thia-3,5,8-triazaacenaphthylene-2-carboxamide]	8.1
C=CC(=O)N1CC[C@@H](NC(=O)c2sc3nccc4c3c2NC(=O)N4c2ccc(Oc3ccccc3)nc2C)C1 (single isomer, unassigned) [Example 716, (R)—N-(1-Acryloylpyrrolidin-3-yl)-5-(*S)-(2-methyl-6-phenoxypyridin-3-yl)-4-oxo-4,5-dihydro-3H-1-thia-3,5,8-triazaacenaphthylene-2-carboxamide]	8.0
C=CC(=O)N1CCC[C@@H](NC(=O)c2sc3nccc4c3c2NC(=O)N4c2cnc(CC(C)C)cc2C)C1 (single isomer, unassigned) [Example 722, (R)—N-(1-Acryloylpiperidin-3-yl)-5-(*R)-(6-isobutyl-4-methylpyridin-3-yl)-4-oxo-4,5-dihydro-3H-1-thia-3,5,8-triazaacenaphthylene-2-carboxamide]	6.4

same assay, conditions: unphosphorylated-BTK kinase domain; 60 minutes incubation; pIC50 = negative log of the IC50 in molar

Compound	BTK_I_binding pIC50
Cc1cc(OC2CCOCC2)ccc1N1C(=O)Nc2c(C(=O)N[C@@H]3CCCN(C)C3)sc3nccc1c23 (single isomer, unassigned) [Example 343, (R)-5-(*R)-(2-Methyl-4-((tetrahydro-2H-pyran-4-yl)oxy)phenyl)-N-(1-methylpiperidin-3-yl)-4-oxo-4,5-dihydro-3H-1-thia-3,5,8-triazaacenaphthylene-2-carboxamide]	5.3
CN1CCC[C@@H](NC(=O)c2sc3nccc4c3c2NC(=O)N4c2c(Cl)ccc3c2OCO3)C1 (single isomer, unassigned) [Example 353, (R)-5-(*R)-(5-Chlorobenzo[d][1,3]dioxol-4-yl)-N-(1-methylpiperidin-3-yl)-4-oxo-4,5-dihydro-3H-1-thia-3,5,8-triazaacenaphthylene-2-carboxamide]	5.8
C=C(Cl)C(=O)N1CCC[C@@H](NC(=O)c2sc3nccc4c3c2NC(=O)N4c2ccc(Oc3ccccc3)cc2C)C1 (single isomer, unassigned) [Example 366, (R)—N-(1-(2-Chloroacryloyl)piperidin-3-yl)-5-(*S)-(2-methyl-4-phenoxyphenyl)-4-oxo-4,5-dihydro-3H-1-thia-3,5,8-triazaacenaphthylene-2-carboxamide]	7.1
Cc1cc(Oc2ccccc2)ccc1N1C(=O)Nc2c(C(=O)N[C@@H]3CCCN(C(=O)/C=C/CN)C3)sc3nccc1c23 (single isomer, unassigned) [Example 367, (R,E)-N-(1-(4-Aminobut-2-enoyl)piperidin-3-yl)-5-(*R)-(2-methyl-4-phenoxyphenyl)-4-oxo-4,5-dihydro-3H-1-thia-3,5,8-triazaacenaphthylene-2-carboxamide]	6.2
C=CC(=O)N1CCC[C@@H](NC(=O)c2sc3nccc4c3c2NC(=O)N4c2ccc(OC(C)C)cc2C)C1 (single isomer, unassigned) [Example 417, (R)—N-(1-Acryloylpiperidin-3-yl)-5-(*S)-(4-isopropoxy-2-methylphenyl)-4-oxo-4,5-dihydro-3H-1-thia-3,5,8-triazaacenaphthylene-2-carboxamide]	5.9
C=CC(=O)N1CCC[C@@H](NC(=O)c2sc3nccc4c3c2NC(=O)N4c2ccc(OC(C)C)cc2C)C1 (single isomer, unassigned) [Example 418, (R)—N-(1-Acryloylpiperidin-3-yl)-5-(*R)-(4-isopropoxy-2-methylphenyl)-4-oxo-4,5-dihydro-3H-1-thia-3,5,8-triazaacenaphthylene-2-carboxamide]	7.8
CCOC(C)(C)/C=C(\C#N)C(=O)N1CCC[C@@H](NC(=O)c2sc3nccc4c3c2NC(=O)N4c2ccc(Oc3ccccc3)cc2C)C1 (single isomer, unassigned) [Example 478, (R,*E)-N-(1-(2-Cyano-4-ethoxy-4-methylpent-2-enoyl)piperidin-3-yl)-5-(*S)-(2-methyl-4-phenoxyphenyl)-4-oxo-4,5-dihydro-3H-1-thia-3,5,8-triazaacenaphthylene-2-carboxamide]	7.8
CCOC(C)(C)/C=C(\C#N)C(=O)N1CCC[C@@H](NC(=O)c2sc3nccc4c3c2NC(=O)N4c2ccc(Oc3ccccc3)cc2C)C1 (single isomer, unassigned) [Example 480, (R,*E)-N-(1-(2-Cyano-4-ethoxy-4-methylpent-2-enoyl)piperidin-3-yl)-5-(*R)-(2-methyl-4-phenoxyphenyl)-4-oxo-4,5-dihydro-3H-1-thia-3,5,8-triazaacenaphthylene-2-carboxamide]	7.2
CCOC(C)(C)/C=C(\C#N)C(=O)N1CCC[C@@H](NC(=O)c2sc3nccc4c3c2NC(=O)N4c2ccc(Oc3ccccc3)cc2C)C1 (single isomer, unassigned) [Example 487, (R,E)-N-(1-(2-Cyano-4-ethoxy-4-methylpent-2-enoyl)piperidin-3-yl)-5-(*S)-(2-methyl-4-phenoxyphenyl)-4-oxo-4,5-dihydro-3H-1-thia-3,5,8-triazaacenaphthylene-2-carboxamide]	7.6
C=CC(=O)N1CCC[C@@H](NC(=O)c2sc3nccc4c3c2NC(=O)N4c2ccc(OC(F)(F)F)cc2C)C1 (single isomer, unassigned) [Example 505, (R)—N-(1-Acryloylpiperidin-3-yl)-5-(*S)-(2-methyl-4-(trifluoromethoxy)phenyl)-4-oxo-4,5-dihydro-3H-1-thia-3,5,8-triazaacenaphthylene-2-carboxamide]	7.8
Cc1cc(Oc2ccccc2)ccc1N1C(=O)Nc2c(C(=O)N[C@@H]3CCCN(C(=O)/C=C/CN)C3)sc3nccc1c23 (single isomer, unassigned) [Example 511, (R,E)-N-(1-(4-Aminobut-2-enoyl)piperidin-3-yl)-5-(*S)-(2-methyl-4-phenoxyphenyl)-4-oxo-4,5-dihydro-3H-1-thia-3,5,8-triazaacenaphthylene-2-carboxamide]	7.8
Cc1cc(Oc2ccccc2)ccc1N1C(=O)Nc2c(C(=O)N[C@@H]3CCCN(C(=O)/C(C#N)=C/C4CC4)C3)sc3nccc1c23 (single isomer, unassigned) [Example 514, (R,E)-N-(1-(2-Cyano-3-cyclopropylacryloyl)piperidin-3-yl)-5-(*S)-(2-methyl-4-phenoxyphenyl)-4-oxo-4,5-dihydro-3H-1-thia-3,5,8-triazaacenaphthylene-2-carboxamide]	7.7
C=CC(=O)N1CC[C@H](NC(=O)c2sc3nccc4c3c2NC(=O)N4c2ccc(Oc3ccccc3)cc2C)C1 (single isomer, unassigned) [Example 518, (S)—N-(1-Acryloylpyrrolidin-3-yl)-5-(*S)-(2-methyl-4-phenoxyphenyl)-4-oxo-4,5-dihydro-3H-1-thia-3,5,8-triazaacenaphthylene-2-carboxamide]	7.6
Cc1cc(Oc2ccccc2)ccc1N1C(=O)Nc2c(C(=O)N[C@@H]3CCCN(C(=O)/C=C/CNS(C)(=O)=O)C3)sc3nccc1c23 (single isomer, unassigned) [Example 532, (R,E)-5-(*S)-(2-Methyl-4-phenoxyphenyl)-N-(1-(4-(methylsulfonamido)but-2-enoyl)piperidin-3-yl)-4-oxo-4,5-dihydro-3H-1-thia-3,5,8-triazaacenaphthylene-2-carboxamide]	7.4
